Legend:
glutamate receptor = test: whole-cell patch-clamp recording of sEPSCs; format: cell-based, human; conditions: holding potential −70 mV; CNQX 10 μM applied with D-APV 50
Protocol: Whole-cell patch-clamp recordings were made from human PSC-derived cortical glutamatergic and GABAergic neurons. The bath solution consisted of 135 mM NaCl, 3 mM KCl, 2 mM CaCl2, 1 mM MgCl2, 10 mM HEPES, 11 mM glucose, 10 mM sucrose, pH 7.4. Recording pipettes were filled with an intracellular solution containing 120 mM potassium D-gluconate, 1 mM ethylene glycol-bis (β-aminoethyl ether) N,N,N′,N′-tetraacetic acid (EGTA), 10 mM 4-(2-hydroxyethyl)piperazine-1-ethanesulfonic acid (HEPES), 4 mM ATP-Mg, 0.3 mM GTP-Na, 10 mM phosphocreatine, 0.1 mM CaCl2, 1 mM MgCl2, pH 7.2, 280-290 mOsm/L. Briefly, the neurons were held at −70 mV to record the Na+/K+ channel activities with voltage-clamp model. […] Spontaneous excitatory postsynaptic currents (sEPSCs) and spontaneous inhibitory currents (sIPSCs) were recorded in gap-free mode at a holding potential of −70 mV and 0 mV, respectively. sEPSCs were blocked by application of the glutamate receptor antagonist 6-Cyano-7-nitroquinoxaline-2,3-dione (CNQX, 10 μM) and D-(−)-2-amino-5-phosphonopentanoic acid (D-APV, 50 sIPSCs were blocked by application of the GABAA receptor antagonist bicuculline (10 An Olympus BX51WI microscope was used to visualize neurons. A MultiClamp 700B amplifier (Axon instruments, Molecular Devices, Sunnyvale, Calif., USA) was used to investigate the voltage clamp and current clamp recordings. […]

[1] = test system: hPSC-derived cortical neural progenitor cells (NPCs); test: Live/Dead assay of hPSC-NPCs cultured in fibrin gel; format: cell-based, human
Protocol: For cell culturing in the fibrin gel, dissociated hPSC-NPCs at a density of 1×10^6 were mixed with fibrinogen at the following concentrations (1, 2.5, 5, 10 and 20 mg/mL) as show in FIG. 5. 0.5 mg/mL aprotinin was added for preventing gel degradation. 1 μL of the fibrinogen-laden cells were dropped on the poly-O coated plates at RT (room temperature). 1 different concentrations of thrombin (0.5, 1, 2.5, 5 and 10 U) solution with 2.5 mM CaCl2 were then added and mixed with the cells-fibrinogen solution. Fresh medium was added after gelation. Cells were encapsulated in the fibrin gel constructs and cultured at 37° C. incubator for characterization. […] The cells, however, tended to aggregate at higher fibrinogen levels. Thus, 2.5 or 5 mg/mL fibrinogen with 0.5 or 1 U thrombin was used for identifying an optimal gelation time.
The cell viability was measured by Live/Dead assay. Briefly, Live/Dead® staining kit (Molecular Probes) was used to assess cell viability. Immediately after harvesting, the cells were incubated in DMEM/F12 containing 1 μM calcein AM and 2 μM ethidium homodimer I for 30 min. […] The number of live (green) and dead (red) cells were counted in each field using Cell Counter in Image-J. The live/dead cell numbers from the five images of one sample were averaged to give each data point and five samples were used to determine the viability.

Compound: N#Cc1cc2c(cc1[N+](=O)[O-])=NC(=O)C(=O)N=2 [CNQX, 6-Cyano-7-nitroquinoxaline-2,3-dione]
- spontaneous excitatory postsynaptic currents (sEPSCs) (glutamate receptor): blocked

Compound: thrombin
- cell viability (percent of live cells to total cells) ([1]; increasing thrombin concentrations at fixed fibrinogen 2.5 mg/ml): decreased with increasing thrombin concentrations

Compound: N[C@H](CCCP(=O)(O)O)C(=O)O [D-APV, D-(−)-2-amino-5-phosphonopentanoic acid]
- spontaneous excitatory postsynaptic currents (sEPSCs) (glutamate receptor): blocked

Compound: fibrinogen
- cell viability (percent of live cells to total cells) ([1]; increasing fibrinogen concentrations at fixed low thrombin (0.5 U)): not influenced

— patent US20230193199A1, “Methods for Printing Functional Human Neural Tissue” (Wisconsin Alumni Research Foundation, priority 2021, published 2023)
